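GI50 is the concentration that inhibits growth by half. TGI is the concentration that stops growth completely.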
Legend:
Assay in all cases: NCI anticancer screen, dose series, 384-well format
786-0 renal = system: 786-0 renal
A498 renal = system: A498 renal
A549 NSCLC = system: A549 NSCLC
ACHN renal = system: ACHN renal
BT-549 breast = system: BT-549 breast
CAKI-1 renal = system: CAKI-1 renal
CCRF-CEM leukemia = system: CCRF-CEM leukemia
DU-145 prostate = system: DU-145 prostate
EKVX NSCLC = system: EKVX NSCLC
HCT-116 colon = system: HCT-116 colon
HCT-15 colon = system: HCT-15 colon
HL-60(TB) leukemia = system: HL-60(TB) leukemia
HOP-62 NSCLC = system: HOP-62 NSCLC
HOP-92 NSCLC = system: HOP-92 NSCLC
HS 578T breast = system: HS 578T breast
HT29 colon = system: HT29 colon
IGROV1 ovarian = system: IGROV1 ovarian
K-562 leukemia = system: K-562 leukemia
KM12 colon = system: KM12 colon
LOX IMVI melanoma = system: LOX IMVI melanoma
M14 melanoma = system: M14 melanoma
MALME-3M melanoma = system: MALME-3M melanoma
MCF7 breast = system: MCF7 breast
MDA-MB-231 breast = system: MDA-MB-231 breast
MDA-MB-435 melanoma = system: MDA-MB-435 melanoma
MDA-MB-468 breast = system: MDA-MB-468 breast
MOLT-4 leukemia = system: MOLT-4 leukemia
NCI-H226 lung = system: NCI-H226 lung
NCI-H23 lung = system: NCI-H23 lung
NCI-H322M lung = system: NCI-H322M lung
NCI-H522 lung = system: NCI-H522 lung
NCI/ADR-RES ovarian = system: NCI/ADR-RES ovarian
OVCAR-3 ovarian = system: OVCAR-3 ovarian
OVCAR-4 ovarian = system: OVCAR-4 ovarian
OVCAR-5 ovarian = system: OVCAR-5 ovarian
OVCAR-8 ovarian = system: OVCAR-8 ovarian
PC-3 prostate = system: PC-3 prostate
RPMI-8226 leukemia = system: RPMI-8226 leukemia
RXF 393 renal = system: RXF 393 renal
SF-268 CNS = system: SF-268 CNS
SF-295 CNS = system: SF-295 CNS
SF-539 CNS = system: SF-539 CNS
SK-MEL-2 melanoma = system: SK-MEL-2 melanoma
SK-MEL-28 melanoma = system: SK-MEL-28 melanoma
SK-OV-3 ovarian = system: SK-OV-3 ovarian
SN12C renal = system: SN12C renal
SNB-19 CNS = system: SNB-19 CNS
SNB-75 CNS = system: SNB-75 CNS
SW-620 colon = system: SW-620 colon
T-47D breast = system: T-47D breast
TK-10 renal = system: TK-10 renal
U251 glioblastoma = system: U251 glioblastoma
UACC-257 melanoma = system: UACC-257 melanoma
UACC-62 melanoma = system: UACC-62 melanoma
UO-31 renal = system: UO-31 renal

OCC1OC(n2cnc3c2NC=NC[C@H]3O)CC1O (stereo not given in full)
GI50 ([…]-0 renal): > 100 µM
TGI (786-0 renal): > 100 µM
GI50 (A498 renal): > 100 µM
TGI (A498 renal): > 100 µM
GI50 (A549 NSCLC): > 100 µM
TGI (A549 NSCLC): > 100 µM
GI50 (ACHN renal): > 100 µM
TGI (ACHN renal): > 100 µM
GI50 (BT-549 breast): > 100 µM
TGI (BT-549 breast): > 100 µM
GI50 (CAKI-1 renal): > 100 µM
TGI (CAKI-1 renal): > 100 µM
GI50 (CCRF-CEM leukemia): > 100 µM
TGI (CCRF-CEM leukemia): > 100 µM
GI50 (DU-145 prostate): > 100 µM
TGI (DU-145 prostate): > 100 µM
GI50 (EKVX NSCLC): > 100 µM
TGI (EKVX NSCLC): > 100 µM
GI50 (HCT-116 colon): > 100 µM
TGI (HCT-116 colon): > 100 µM
GI50 (HCT-15 colon): > 100 µM
TGI (HCT-15 colon): > 100 µM
GI50 (HL-60(TB) leukemia): > 100 µM
TGI (HL-60(TB) leukemia): > 100 µM
GI50 (HOP-62 NSCLC): > 100 µM
TGI (HOP-62 NSCLC): > 100 µM
GI50 (HOP-92 NSCLC): > 100 µM
TGI (HOP-92 NSCLC): > 100 µM
GI50 (HS 578T breast): > 100 µM
TGI (HS 578T breast): > 100 µM
GI50 (HT29 colon): > 100 µM
TGI (HT29 colon): > 100 µM
GI50 (IGROV1 ovarian): > 100 µM
TGI (IGROV1 ovarian): > 100 µM
GI50 (K-562 leukemia): > 100 µM
TGI (K-562 leukemia): > 100 µM
GI50 (KM12 colon): > 100 µM
TGI (KM12 colon): > 100 µM
GI50 (LOX IMVI melanoma): > 100 µM
TGI (LOX IMVI melanoma): > 100 µM
GI50 (M14 melanoma): > 100 µM
TGI (M14 melanoma): > 100 µM
GI50 (MALME-3M melanoma): > 100 µM
TGI (MALME-3M melanoma): > 100 µM
GI50 (MCF7 breast): > 100 µM
TGI (MCF7 breast): > 100 µM
GI50 (MDA-MB-231 breast): > 100 µM
TGI (MDA-MB-231 breast): > 100 µM
GI50 (MDA-MB-435 melanoma): > 100 µM
TGI (MDA-MB-435 melanoma): > 100 µM
GI50 (MDA-MB-468 breast): > 100 µM
TGI (MDA-MB-468 breast): > 100 µM
GI50 (MOLT-4 leukemia): > 100 µM
TGI (MOLT-4 leukemia): > 100 µM
GI50 (NCI-H226 lung): > 100 µM
TGI (NCI-H226 lung): > 100 µM
GI50 (NCI-H23 lung): > 100 µM
TGI (NCI-H23 lung): > 100 µM
GI50 (NCI-H322M lung): > 100 µM
TGI (NCI-H322M lung): > 100 µM
GI50 (NCI-H522 lung): > 100 µM
TGI (NCI-H522 lung): > 100 µM
GI50 (NCI/ADR-RES ovarian): > 100 µM
TGI (NCI/ADR-RES ovarian): > 100 µM
GI50 (OVCAR-3 ovarian): > 100 µM
TGI (OVCAR-3 ovarian): > 100 µM
GI50 (OVCAR-4 ovarian): > 100 µM
TGI (OVCAR-4 ovarian): > 100 µM
GI50 (OVCAR-5 ovarian): > 100 µM
TGI (OVCAR-5 ovarian): > 100 µM
GI50 (OVCAR-8 ovarian): > 100 µM
TGI (OVCAR-8 ovarian): > 100 µM
GI50 (PC-3 prostate): > 100 µM
TGI (PC-3 prostate): > 100 µM
GI50 (RPMI-8226 leukemia): > 100 µM
TGI (RPMI-8226 leukemia): > 100 µM
GI50 (RXF 393 renal): > 100 µM
TGI (RXF 393 renal): > 100 µM
GI50 (SF-268 CNS): > 100 µM
TGI (SF-268 CNS): > 100 µM
GI50 (SF-295 CNS): > 100 µM
TGI (SF-295 CNS): > 100 µM
GI50 (SF-539 CNS): > 100 µM
TGI (SF-539 CNS): > 100 µM
GI50 (SK-MEL-2 melanoma): > 100 µM
TGI (SK-MEL-2 melanoma): > 100 µM
GI50 (SK-MEL-28 melanoma): > 100 µM
TGI (SK-MEL-28 melanoma): > 100 µM
GI50 (SK-OV-3 ovarian): > 100 µM
TGI (SK-OV-3 ovarian): > 100 µM
GI50 (SN12C renal): > 100 µM
TGI (SN12C renal): > 100 µM
GI50 (SNB-19 CNS): > 100 µM
TGI (SNB-19 CNS): > 100 µM
GI50 (SNB-75 CNS): > 100 µM
TGI (SNB-75 CNS): > 100 µM
GI50 (SW-620 colon): > 100 µM
TGI (SW-620 colon): > 100 µM
GI50 (T-47D breast): > 100 µM
TGI (T-47D breast): > 100 µM
GI50 (TK-10 renal): > 100 µM
TGI (TK-10 renal): > 100 µM
GI50 (U251 glioblastoma): > 100 µM
TGI (U251 glioblastoma): > 100 µM
GI50 (UACC-257 melanoma): > 100 µM
TGI (UACC-257 melanoma): > 100 µM
GI50 (UACC-62 melanoma): > 100 µM
TGI (UACC-62 melanoma): > 100 µM
GI50 (UO-31 renal): > 100 µM
TGI (UO-31 renal): > 100 µM

Reference: PubChem BioAssay (NCI)
